From patent US10051857B2, “Formulation component” (SYNGENTA LIMITED, priority 2011, dated 2018) come the findings set out here.

Holding throughout (type): in vivo
The subject of one test is Avena fatua (AVEFA). As to the kind of experiment: Glasshouse adjuvant test with pinoxaden (Example 8). As to conditions: pinoxaden 7.5 or 15 g/ha, adjuvant 0.2% v/v or none, 200 l/ha; growth stage 12; mean over two rates, three replicates, 14 and 21 days. Here is the method: (§1) The adjuvant shown in example 1 was tested in a glasshouse against four weed species in combination with the herbicide pinoxaden. A 20% w/w stock emulsion of compound 1 was prepared additionally containing 2% w/w Gohsenol® GL03 and 2% w/w Pluronic® PE10500 as surfactants. Using this, an agrochemical composition was prepared containing 0.2% v/v of the adjuvant in a track sprayer and was applied at a volume of 200 liters per hectare. Pinoxaden was applied at either 7.5 or 15 grams of pesticide per hectare on each of the weed species. The weed species and their growth stage at spraying were Alopecurus myosuroides (ALOMY; growth stage 13), Avena fatua (AVEFA; growth stage 12); Lolium perenne (LOLPE; growth stage 13), Setaria viridis (SETVI; growth stage 14).
(§2) Each spray test was replicated three times. The efficacy of the herbicide was assessed visually and expressed as a percentage of the leaf area killed. Samples were assessed at time periods of 14 and 21 days following application. The results shown in Table 8 are mean averages over the two rates of pinoxaden, three replicates and the two assessment timings, and are compared to the efficacy of pinoxaden in the absence of adjuvant.

In test [1] the test system is Setaria viridis (SETVI). The description is as above. The settings on record: pinoxaden 7.5 or 15 g/ha, adjuvant 0.2% v/v or none, 200 l/ha; growth stage 14; mean over two rates, three replicates, 14 and 21 days. Here is the method: as §1, §2
The test system of test [2] is Alopecurus myosuroides (ALOMY). The test is described as above. As to conditions: pinoxaden 7.5 or 15 g/ha, adjuvant 0.2% v/v or none, 200 l/ha; growth stage 13; mean over two rates, three replicates, 14 and 21 days. The method, then: as §1, §2
For a further test, the system named is Lolium perenne (LOLPE). The description is as above. As to conditions: pinoxaden 7.5 or 15 g/ha, adjuvant 0.2% v/v or none, 200 l/ha; growth stage 13; mean over two rates, three replicates, 14 and 21 days. The method, then: as §1, §2
Test [3] concerns four weed species (ALOMY, AVEFA, LOLPE, SETVI). Nature of the test: Glasshouse adjuvant test with pinoxaden (Example 8), mean across species. As to conditions: pinoxaden 7.5 or 15 g/ha, adjuvant 0.2% v/v or none. The method, then:
as §1, §2

For test [4], the system named is four weed species (ABUTH, CHEAL, SETVI, XANST). Nature of the test: Glasshouse adjuvant test with fomesafen (Example 3), mean across species. The settings on record: fomesafen 60 or 120 g/ha, adjuvant 0.2% v/v or none. The method, then: (§3) Compound No. 2 was tested in a glasshouse against four weed species in combination with the herbicide fomesafen. An agrochemical composition was prepared containing 0.2% v/v of the adjuvant in a track sprayer and was applied at a volume of 200 liters per hectare. Fomesafen was applied at either 60 or 120 grams of pesticide per hectare on weeds which had been grown to the 1.3 or 1.4 leaf stage. The weed species were Chenopodium album (CHEAL), Abutilon theophrasti (ABUTH), Setaria viridis (SETVI), and Xanthium strumarium (XANST).
(§4) Each spray test was replicated six times. The efficacy of the herbicide was assessed visually and expressed as a percentage of the leaf area killed. Samples were assessed at time periods of 7 and 14 days following application. The results shown in Table 3 below are mean averages over the two rates of fomesafen, six replicates and the two assessment timings, and are compared to the efficacy of fomesafen in the absence of adjuvant.

Test [5] deals with Setaria viridis (SETVI). As to the kind of experiment: Glasshouse adjuvant test with fomesafen (Example 3). As to conditions: fomesafen 60 or 120 g/ha, adjuvant 0.2% v/v or none, 200 l/ha; leaf area killed; mean over two rates, six replicates, 7 and 14 days. Here is the method:
as §3, §4

In test [6] the test system is Abutilon theophrasti (ABUTH). The description is as above. As to conditions: fomesafen 60 or 120 g/ha, adjuvant 0.2% v/v or none, 200 l/ha; leaf area killed; mean over two rates, six replicates, 7 and 14 days. Here is the method: as §3, §4
The test system of test [7] is Xanthium strumarium (XANST). The description is as above. The settings on record: fomesafen 60 or 120 g/ha, adjuvant 0.2% v/v or none, 200 l/ha; leaf area killed; mean over two rates, six replicates, 7 and 14 days. The method, then:
as §3, §4

In test [8] the test system is Chenopodium album (CHEAL). The description is as above. The settings on record: fomesafen 60 or 120 g/ha, adjuvant 0.2% v/v or none, 200 l/ha; leaf area killed; mean over two rates, six replicates, 7 and 14 days. The method, then: as §3, §4
In test [9] the test system is four weed species (CHEAL, ABUTH, SETVI, XANST). Nature of the test: Glasshouse adjuvant test with fomesafen (Example 5), mean across species. The settings on record: fomesafen 60 or 120 g/ha, adjuvant 0.2% v/v or none. The method, then:
(§5) Compound 1 (N, N-diethyl-3-methylbenzamide) was tested in a glasshouse against four weed species using the herbicide fomesafen. An agrochemical composition was prepared containing 0.2% v/v of the adjuvant in a track sprayer and was applied at a volume of 200 liters per hectare. Fomesafen was applied at either 60 or 120 grams of pesticide per hectare on each of the weed species. The weed species and their growth stage at spraying were Chenopodium album (CHEAL; growth stage 13/14), Abutilon theophrasti (ABUTH; growth stage 12), Setaria viridis (SETVI; growth stage 13), and Xanthium strumarium (XANST; growth stage 12).
(§6) Each spray test was replicated three times. The efficacy of the herbicide was assessed visually and expressed as a percentage of the leaf area killed. Samples were assessed at time periods of 7, 14 and 21 days following application. The results shown in Table 5 below are mean averages over the two rates of fomesafen, three replicates and the three assessment timings, and are compared to the efficacy of fomesafen in the absence of adjuvant.

The test system of test [10] is Setaria viridis (SETVI). Nature of the test: Glasshouse adjuvant test with fomesafen (Example 5). The settings on record: fomesafen 60 or 120 g/ha, adjuvant 0.2% v/v or none, 200 l/ha; growth stage 13; mean over two rates, three replicates, 7, 14 and 21 days. Here is the method: as §5, §6
In test [11] the test system is Abutilon theophrasti (ABUTH). The description is as above. The settings on record: fomesafen 60 or 120 g/ha, adjuvant 0.2% v/v or none, 200 l/ha; growth stage 12; mean over two rates, three replicates, 7, 14 and 21 days. The method, then: as §5, §6
The test system of test [12] is Xanthium strumarium (XANST). The description is as above. The settings on record: fomesafen 60 or 120 g/ha, adjuvant 0.2% v/v or none, 200 l/ha; growth stage 12; mean over two rates, three replicates, 7, 14 and 21 days. The method, then:
as §5, §6

In test [13] the test system is Chenopodium album (CHEAL). Described as above. As to conditions: fomesafen 60 or 120 g/ha, adjuvant 0.2% v/v or none, 200 l/ha; growth stage 13/14; mean over two rates, three replicates, 7, 14 and 21 days. Here is the method:
as §5, §6

Test [14] deals with Digitaria sanguinalis (DIGSA). As to the kind of experiment: Glasshouse adjuvant test with mesotrione (Example 6). The settings on record: mesotrione 45 or 90 g/ha, adjuvant 0.2% v/v or none, 200 l/ha; growth stage 14; mean over two rates, three replicates, 7, 14 and 21 days. The method, then: (§7) Compound 1 was tested in a glasshouse against four weed species using the herbicide mesotrione. A 20% w/w stock emulsion of compound 1 was prepared additionally containing 2% w/w Gohsenol® GL03 and 2% w/w Pluronic® PE10500 as surfactants. Using this, an agrochemical composition was prepared containing 0.2% v/v of the adjuvant in a track sprayer and was applied at a volume of 200 liters per hectare. Mesotrione was applied at either 45 or 90 grams of pesticide per hectare on each of the weed species. The weed species and their growth stage at spraying were Amaranthus tuberculatus (AMATE; growth stage 13/14), Brachiaria decumbens (BRADE; growth stage 13/14), Digitaria sanguinalis (DIGSA; growth stage 14), and Polygonum convolvulus (POLCO; growth stage 11/11.5).
(§8) Each test was replicated three times. The efficacy of the herbicide was assessed visually and expressed as a percentage of the leaf area killed. Samples were assessed at time periods of 7, 14 and 21 days following application. The results shown in Table 6 below are mean averages over the two rates of mesotrione, three replicates and the three assessment timings, and are compared to the efficacy of mesotrione in absence of adjuvant.

In test [15] the test system is Polygonum convolvulus (POLCO). Described as above. As to conditions: mesotrione 45 or 90 g/ha, adjuvant 0.2% v/v or none, 200 l/ha; growth stage 11/11.5; mean over two rates, three replicates, 7, 14 and 21 days. Here is the method:
as §7, §8

Test [16] deals with Amaranthus tuberculatus (AMATE). The test is described as above. The settings on record: mesotrione 45 or 90 g/ha, adjuvant 0.2% v/v or none, 200 l/ha; growth stage 13/14; mean over two rates, three replicates, 7, 14 and 21 days. Here is the method:
as §7, §8

In test [17] the test system is Brachiaria decumbens (BRADE). The test is described as above. The settings on record: mesotrione 45 or 90 g/ha, adjuvant 0.2% v/v or none, 200 l/ha; growth stage 13/14; mean over two rates, three replicates, 7, 14 and 21 days. The method, then: as §7, §8
For test [18], the system named is four weed species (AMATE, BRADE, DIGSA, POLCO). Nature of the test: Glasshouse adjuvant test with mesotrione (Example 6), mean across species. The settings on record: mesotrione 45 or 90 g/ha, adjuvant 0.2% v/v or none.
The test system of test [19] is Setaria viridis (SETVI). Nature of the test: Glasshouse adjuvant test with nicosulfuron (Example 7). As to conditions: nicosulfuron 30 or 60 g/ha, adjuvant 0.2% v/v or none, 200 l/ha; growth stage 13; mean over two rates, three replicates, 14 and 21 days. Here is the method:
(§9) Compound 1 was tested in a glasshouse against four weed species using the herbicide nicosulfuron. A 20% w/w stock emulsion of compound 1 was prepared additionally containing 2% w/w Gohsenol® GL03 and 2% w/w Pluronic® PE10500 as surfactants. Using this, an agrochemical composition was prepared containing 0.2% v/v of the adjuvant in a track sprayer and was applied at a volume of 200 liters per hectare. Nicosulfuron was applied at either 30 or 60 grams of pesticide per hectare on each of the weed species. The weed species and their growth stage at spraying were Abutilon theophrasti (ABUTH; growth stage 13), Chenopodium album (CHEAL; growth stage 14), Digitaria sanguinalis (DIGSA; growth stage 13), and Setaria viridis (SETVI; growth stage 13).
(§10) Each spray test replicated three times. The efficacy of the herbicide was assessed visually and expressed as a percentage of the leaf area killed. Samples were assessed at time periods of 14 and 21 days following application. The results shown in Table 7 below are mean averages over the two rates of nicosulfuron, three replicates and the two assessment timings, and are compared to the efficacy of nicosulfuron in the absence of an adjuvant.

The test system of test [20] is Digitaria sanguinalis (DIGSA). The test is described as above. As to conditions: nicosulfuron 30 or 60 g/ha, adjuvant 0.2% v/v or none, 200 l/ha; growth stage 13; mean over two rates, three replicates, 14 and 21 days. The method, then:
as §9, §10

Test [21] concerns Abutilon theophrasti (ABUTH). The description is as above. The settings on record: nicosulfuron 30 or 60 g/ha, adjuvant 0.2% v/v or none, 200 l/ha; growth stage 13; mean over two rates, three replicates, 14 and 21 days. Here is the method: as §9, §10
Test [22] deals with Chenopodium album (CHEAL). Described as above. The settings on record: nicosulfuron 30 or 60 g/ha, adjuvant 0.2% v/v or none, 200 l/ha; growth stage 14; mean over two rates, three replicates, 14 and 21 days. The method, then:
as §9, §10

For test [23], the system named is four weed species (ABUTH, CHEAL, DIGSA, SETVI). As to the kind of experiment: Glasshouse adjuvant test with nicosulfuron (Example 7), mean across species. As to conditions: nicosulfuron 30 or 60 g/ha, adjuvant 0.2% v/v or none. Here is the method: as §9, §10

Consider `CCc1cc(C)cc(CC)c1-c1c(OC(=O)C(C)(C)C)n2n(c1=O)CCOCC2` [Pinoxaden, pinoxaden, reference compound], for which the “Mean percentage kill AVEFA” value with Avena fatua (AVEFA) stood at 20.8%. In addition, the “Mean percentage kill SETVI” value in the test on Setaria viridis (SETVI) [1] was 15%. In test [2], the “Mean percentage kill ALOMY” value is given as 21.2%. Also, the “Mean percentage kill LOLPE” value in the test on Lolium perenne (LOLPE) turned out to be 12.5%. Besides, the “Mean percentage kill, Mean across species” value in test [3] turned out to be 17.4%.

On to `CS(=O)(=O)NC(=O)c1cc(Oc2ccc(C(F)(F)F)cc2Cl)ccc1[N+](=O)[O-]` [fomesafen, reference compound], for which the “Mean percentage kill, Mean across species” value in [4] was determined as 47.0%; in [9], 37.7%. Also, the “Mean percentage kill SETVI” value in the test on Setaria viridis (SETVI) [5] stood at 38.2%; in the test with Setaria viridis (SETVI) [10], 10.6%. For the same molecule, the “Mean percentage kill ABUTH” value in [6] came out at 60.8%; in [11] it was 20%. Besides, the “Mean percentage kill XANST” value in [7] is 45.8%; in test [12], 42.8%. Moreover, the figures for the “Mean percentage kill CHEAL” value in test [8] and in test [13] were 43.3% and 77.5%, respectively.

Regarding `CS(=O)(=O)c1ccc(C(=O)C2C(=O)CCCC2=O)c([N+](=O)[O-])c1` [mesotrione, reference compound], the “Mean percentage kill DIGSA” value in [14] is reported as 23%. In test [15], the “Mean percentage kill POLCO” value worked out at 73.3%. Besides, the “Mean percentage kill AMATE” value in [16] was 65.6%. Further, in [17], the “Mean percentage kill BRADE” value was determined as 26.7%. In [18], the “Mean percentage kill, Mean across species” value was determined as 47.1%.

With `COc1cc(OC)nc(NC(=O)NS(=O)(=O)c2ncccc2C(=O)N(C)C)n1` [nicosulfuron, reference compound], in the test with Setaria viridis (SETVI) [19], the “Mean percentage kill SETVI” value worked out at 92%. Besides, the “Mean percentage kill DIGSA” value in [20] is listed as 87.9%. Moreover, the “Mean percentage kill ABUTH” value in test [21] was 69.2%. Further, in [22], the “Mean percentage kill CHEAL” value was 50.8%. In addition, the “Mean percentage kill, Mean across species” value in test [23] is 75%.
